Reference: ChEMBL document CHEMBL1129630, “Synthesis and structure-activity relationships of retinoid X receptor selective diaryl sulfide analogs of retinoic acid” (J Med Chem, 1996)

System: HL-60
Test: Induction of transglutaminase (TGase) activity in HL-60 cells
Settings: Homo sapiens

- EC50: > 1000 nM
Structure (SMILES): C/C(=C\c1ccc(C(=O)O)cc1)c1ccc2c(c1)C(C)(C)CCC2(C)C
